Laboratory results published in US8101352B2, “Detection of ESR1 amplification in breast cancer” (Universitatsklinikum Hamburg-Eppendorf, priority 2006, dated 2012).

Test system: breast cancer patients
Test: Prognostic relevance of ESR1 alterations in breast cancer treated with Tamoxifen (tissue microarray FISH/IHC with survival analysis)
Type: in vivo, human
From the text: Contingency table analysis and Chi-square tests were used to study the relationship between histologic tumor type, grade, stage and gene amplification. Survival curves were plotted according to Kaplan-Meier. A log rank test was applied to examine the relationship between gene amplifications and patient survival.
2.1 The general results obtained by CGH were verified by fluorescence in situ hybridization (FISH) using existing tissue microarrays. A breast cancer Prognosis Tissue Microarray containing more than 2517 breast tissues was analyzed. […]
2.3 The TMA sections were treated according to the Paraffin Pretreatment Reagent Kit protocol (Vysis, Downers Grove, Ill.) before hybridization. […] In a second more refined analysis FISH signal numbers of the ESR1 gene and centromere 6 were counted in each tissue spot. […]
3.1 Immunohistochemical detection of the estrogen receptor alpha protein was performed using the above described TMAs and antibody NCL-L-ER-6F11 as a primary antibody (Novocastra, Newcastle, UK). […] In brief, intensity of the estrogen receptor staining was recorded in a 4-step scale (0-3) and the fraction of ER positive tumor cells in a 5-step (1-5) scale. […]

CC/C(=C(\c1ccccc1)c1ccc(OCCN(C)C)cc1)c1ccccc1 [Tamoxifen]
prognosis of Tamoxifen treated patients with ESR1 amplification (Tamoxifen monotherapy after surgery, ESR1 amplified versus ER positive by IHC without ESR1 amplification, p<0.0001 (FIG. 4)): significantly better | overall survival of patients with ESR1-amplified tumors under anti-estrogen therapy with Tamoxifen (compared to patients with tumors not exhibiting ESR1 amplification (FIG. 4)): significantly increased
